Reference: patent US4118561A, “7-(Substituted)-7H-pyrrolo[3,2-f]quinazoline-1,3-diamines” (priority 1977, dated 1978)
≈ marks a conversion by molar mass, not a printed value.

What was measured:
N. catarrhalis 8193 = experiment: In vitro antibacterial activity (MIC), N. catarrhalis 8193; conditions: 18 h
K. pneumoniae 10031 = experiment: In vitro antibacterial activity (MIC), K. pneumoniae 10031; conditions: Klebsiella pneumoniae, 10031, 18 h
S. aureus Smith = experiment: In vitro antibacterial activity (MIC), S. aureus Smith; conditions: Staphylococcus aureus, 18 h
P. vulgaris 6896 = experiment: In vitro antibacterial activity (MIC), P. vulgaris 6896; conditions: Proteus vulgaris, 6896, 18 h
S. paratyphi 11737 = experiment: In vitro antibacterial activity (MIC), S. paratyphi 11737; type: cell-based; conditions: Salmonella enterica, 18 h
S. aureus 53-180 = experiment: In vitro antibacterial activity (MIC), S. aureus 53-180; conditions: Staphylococcus aureus, 53180, 18 h
E. coli 9637 = experiment: In vitro antibacterial activity (MIC), E. coli 9637; conditions: Escherichia coli, 9637, 18 h

SMILES | MIC (N. catarrhalis 8193) | MIC (K. pneumoniae 10031) | MIC (S. aureus Smith) | MIC (P. vulgaris 6896) | MIC (S. paratyphi 11737) | MIC (S. aureus 53-180) | MIC (E. coli 9637)
N#Cc1cc([N+](=O)[O-])ccc1-n1ccc2c3c(N)nc(N)nc3ccc21 [Example 79] | 0.244 µg/mL (≈ 0.707 µM) | 1.95 µg/mL (≈ 5.65 µM) | 0.488 µg/mL (≈ 1.41 µM) | > 250 µg/mL | > 250 µg/mL | 0.488 µg/mL (≈ 1.41 µM) | 15.6 µg/mL (≈ 45.2 µM)
COc1ccc(OC)c(Cn2ccc3c4c(N)nc(N)nc4ccc32)c1 [Example 36] | 0.031 µg/mL (≈ 0.0887 µM) | 0.031 µg/mL (≈ 0.0887 µM) | 0.244 µg/mL (≈ 0.698 µM) | 3.9 µg/mL (≈ 11.2 µM) | 3.9 µg/mL (≈ 11.2 µM) | 0.122 µg/mL (≈ 0.349 µM) | 0.976 µg/mL (≈ 2.79 µM)
Nc1ccc(-n2ccc3c4c(N)nc(N)nc4ccc32)cc1 [Example 96, 7-(4-Aminophenyl)-7H-pyrrolo[3,2-f]-quinazaline-1,3-diamine] | 0.0152 µg/mL (≈ 0.0524 µM) | 0.031 µg/mL (≈ 0.107 µM) | 0.488 µg/mL (≈ 1.68 µM) | 0.976 µg/mL (≈ 3.36 µM) | 0.488 µg/mL (≈ 1.68 µM) | 0.244 µg/mL (≈ 0.84 µM) | 0.244 µg/mL (≈ 0.84 µM)
Nc1nc(N)c2c(ccc3c2ccn3Cc2csc3ccccc23)n1 [Example 46] | 1.95 µg/mL (≈ 5.65 µM) | 15.6 µg/mL (≈ 45.2 µM) | 31.3 µg/mL (≈ 90.6 µM) | > 250 µg/mL | > 250 µg/mL | 31.3 µg/mL (≈ 90.6 µM) | 125 µg/mL (≈ 362 µM)
Nc1nc(N)c2c(ccc3[nH]c4c(c32)CCCC4)n1 [Example 107, 8,9,10,11-Tetrahydro-7H-pyrimido-[4,5-c]carbazole-1,3-diamine] | 125 µg/mL (≈ 493 µM) | 125 µg/mL (≈ 493 µM) | 62.5 µg/mL (≈ 247 µM) | > 250 µg/mL | 125 µg/mL (≈ 493 µM) | 125 µg/mL (≈ 493 µM) | 125 µg/mL (≈ 493 µM)
Cc1cc(C)c(C)c(Cn2ccc3c4c(N)nc(N)nc4ccc32)c1C [Example 28] | 0.244 µg/mL (≈ 0.706 µM) | 3.9 µg/mL (≈ 11.3 µM) | 15.6 µg/mL (≈ 45.2 µM) | > 250 µg/mL | > 250 µg/mL | 15.6 µg/mL (≈ 45.2 µM) | > 250 µg/mL
Nc1nc(N)c2c(ccc3[nH]ccc32)n1 [Example 1, 7-H-Pyrrolo[3,2-f]quinazoline-1,3-diamine] | 0.244 µg/mL (≈ 1.22 µM) | 7.81 µg/mL (≈ 39.2 µM) | 31.3 µg/mL (≈ 157 µM) | 15.6 µg/mL (≈ 78.3 µM) | 31.3 µg/mL (≈ 157 µM) | 31.3 µg/mL (≈ 157 µM) | 3.9 µg/mL (≈ 19.6 µM)
Cc1cc2c3c(N)nc(N)nc3ccc2n1C [Example 99] | 0.061 µg/mL (≈ 0.268 µM) | 0.244 µg/mL (≈ 1.07 µM) | 31.3 µg/mL (≈ 138 µM) | 0.976 µg/mL (≈ 4.29 µM) | 1.95 µg/mL (≈ 8.58 µM) | 31.3 µg/mL (≈ 138 µM) | 0.244 µg/mL (≈ 1.07 µM)
CCOc1ccc(Cn2ccc3c4c(N)nc(N)nc4ccc32)cc1 [Example 40] | 0.122 µg/mL (≈ 0.366 µM) | 3.9 µg/mL (≈ 11.7 µM) | 1.95 µg/mL (≈ 5.85 µM) | 7.81 µg/mL (≈ 23.4 µM) | 7.81 µg/mL (≈ 23.4 µM) | 0.488 µg/mL (≈ 1.46 µM) | 1.95 µg/mL (≈ 5.85 µM)
Nc1nc(N)c2c(ccc3c2ccn3Cc2ccc3ccccc3c2Br)n1 [Example 60] | 0.488 µg/mL (≈ 1.17 µM) | 15.6 µg/mL (≈ 37.3 µM) | 31.3 µg/mL (≈ 74.8 µM) | > 250 µg/mL | > 250 µg/mL | 15.6 µg/mL (≈ 37.3 µM) | > 250 µg/mL
Cc1nc2ccccc2nc1-n1ccc2c3c(N)nc(N)nc3ccc21 [Example 92] | 0.122 µg/mL (≈ 0.357 µM) | 0.976 µg/mL (≈ 2.86 µM) | 1.95 µg/mL (≈ 5.71 µM) | > 250 µg/mL | > 250 µg/mL | 0.488 µg/mL (≈ 1.43 µM) | 7.81 µg/mL (≈ 22.9 µM)
CCC(=O)c1ccc(-n2ccc3c4c(N)nc(N)nc4ccc32)cc1 [Example 72] | 0.031 µg/mL (≈ 0.0935 µM) | 31.3 µg/mL (≈ 94.5 µM) | 31.3 µg/mL (≈ 94.5 µM) | > 250 µg/mL | > 250 µg/mL | 7.81 µg/mL (≈ 23.6 µM) | 15.6 µg/mL (≈ 47.1 µM)
Cc1cc(-n2ccc3c4c(N)nc(N)nc4ccc32)c2ccccc2n1 [Example 91] | 0.031 µg/mL (≈ 0.0911 µM) | 0.061 µg/mL (≈ 0.179 µM) | 0.061 µg/mL (≈ 0.179 µM) | 3.9 µg/mL (≈ 11.5 µM) | 1.95 µg/mL (≈ 5.73 µM) | 0.061 µg/mL (≈ 0.179 µM) | 1.95 µg/mL (≈ 5.73 µM)
Nc1nc(N)c2c(ccc3c2ccn3-c2ccnc3ccccc23)n1 [Example 87] | 0.031 µg/mL (≈ 0.095 µM) | 0.031 µg/mL (≈ 0.095 µM) | 0.031 µg/mL (≈ 0.095 µM) | 1.95 µg/mL (≈ 5.97 µM) | 0.976 µg/mL (≈ 2.99 µM) | 0.0152 µg/mL (≈ 0.0466 µM) | 0.488 µg/mL (≈ 1.5 µM)
Nc1nc(N)c2c(ccc3c2ccn3-c2nc3ccccc3s2)n1 [Example 97, 7-(2-Benzothiazolyl)-7H-pyrrolo-[3,2-f]quinazoline-1,3-diamine] | 0.488 µg/mL (≈ 1.47 µM) | 62.5 µg/mL (≈ 188 µM) | 250 µg/mL (≈ 752 µM) | > 250 µg/mL | > 250 µg/mL | 125 µg/mL (≈ 376 µM) | > 250 µg/mL
Nc1nc(N)c2c(ccc3c2ccn3Cc2ccc(C(F)(F)F)cc2)n1 [Example 13] | 0.031 µg/mL (≈ 0.0868 µM) | 0.976 µg/mL (≈ 2.73 µM) | 1.95 µg/mL (≈ 5.46 µM) | 31.3 µg/mL (≈ 87.6 µM) | 15.6 µg/mL (≈ 43.7 µM) | 0.976 µg/mL (≈ 2.73 µM) | 3.9 µg/mL (≈ 10.9 µM)
Cc1cccc(C)c1Cn1ccc2c3c(N)nc(N)nc3ccc21 [Example 24] | 0.122 µg/mL (≈ 0.384 µM) | 15.6 µg/mL (≈ 49.1 µM) | 250 µg/mL (≈ 788 µM) | > 250 µg/mL | > 250 µg/mL | 250 µg/mL (≈ 788 µM) | 250 µg/mL (≈ 788 µM)
